One compound from US11926609B1, “6′-(3-chlorophenyl)-2′-ethoxy-3,4′-bipyridine-3′-carbonitrile as antimicrobial compounds” (KING FAISAL UNIVERSITY, priority 2023, dated 2024) can be followed below.

Common to all, as to assay type: cell-based
The subject of experiment [1] is Bacillus Cereus. Nature of the experiment: Agar plate disc-diffusion, antibacterial inhibition zone. Particulars: Gram positive, nutrient agar, 37° C., 48 h, DMSO zone subtracted. The protocol:
(§1) The agar plate disc-diffusion method was applied. Sterilized filter papers (6 mm in diameter) were wetted with 10 μL of a solution of 6′-(3-chlorophenyl)-2′-ethoxy-3,4′-bipyridine-3′-carbonitrile (4) to be tested, containing […], and the discs were allowed to air dry. The discs were then placed onto the surface of agar plates (nutrient agar for bacteria and Sabouraud's dextrose agar for fungi) seeded with the test organism. Each plate contained 15 mL of the agar medium, previously seeded with 0.2 mL of the broth culture of each organism pregrown for 18 hours. The plates were incubated at 37° C. for 48 h, and 72 h for fungi. The inhibition zones were measured in mm. Discs impregnated with DMSO were used as a control, and its inhibition zone was subtracted from the tested compound actual inhibition zone.
(§2) The results of the antimicrobial testing can be observed in Tables 1 and 2, below, using ciprofloxacin as a reference.

The subject of experiment [2] is Escherichia coli. Described as above. To be noted: Gram negative, nutrient agar, 37° C., 48 h, DMSO zone subtracted. The protocol:
as §1, §2

For experiment [3], the system named is Pseudomonas aeruginosa. The experiment is described as above. To be noted: Gram negative, nutrient agar, 37° C., 48 h, DMSO zone subtracted. The protocol: as §1, §2
The test system of experiment [4] is Staphylococcus aureus. The experiment is described as above. To be noted: Gram positive, nutrient agar, 37° C., 48 h, DMSO zone subtracted. The protocol: as §1, §2
Experiment [5] has as its system Aspergillus flavus. Nature of the experiment: Agar plate disc-diffusion, antifungal inhibition zone. To be noted: Sabouraud's dextrose agar, 72 h, DMSO zone subtracted. The protocol: as §1, §2
On the technique in general: A growth-free zone around the sample is the usual read-out of agar diffusion tests.

Experiment [6] has as its system Chrysosporium keratinophilum. The description is as above. To be noted: Sabouraud's dextrose agar, 72 h, DMSO zone subtracted. The protocol: as §1, §2
The mark [7] stands for this setting: A = concentration of comp. = 10,000 μL.
[8] abbreviates: B = concentration of comp. = 30.000 μL.
Setting [9] is: C = concentration of comp. = 50,000 μL.

With `CCOc1nc(-c2cccc(Cl)c2)cc(-c2cccnc2)c1C#N` [compound 4, 6′-(3-chlorophenyl)-2′-ethoxy-3,4′-bipyridine-3′-carbonitrile], the “inhibition zone, Bacillus Cereus, A” value in experiment [1] (setting [7]) turned out to be 26 mm. In addition, in experiment [1] (setting [8]), the “inhibition zone, Bacillus Cereus, B” value was determined as 28 mm. The “inhibition zone, Bacillus Cereus, C” value in experiment [1] (setting [9]) was 40 mm. Moreover, the “inhibition zone, Escherichia coli, A” value in experiment [2] (setting [7]) worked out at 26 mm. Besides, the “inhibition zone, Escherichia coli, B” value in experiment [2] (setting [8]) is 36 mm. Also, the “inhibition zone, Escherichia coli, C” value in experiment [2] (setting [9]) was 48 mm. Besides, the “inhibition zone, Pseudomonas aeruginosa, A” value in experiment [3] (setting [7]) amounted to 22 mm. Besides, the “inhibition zone, Pseudomonas aeruginosa, B” value in experiment [3] (setting [8]) amounted to 29 mm. Also, in experiment [3] (setting [9]), the “inhibition zone, Pseudomonas aeruginosa, C” value stood at 38 mm. Besides, the “inhibition zone, Staphylococcus aureus, A” value in experiment [4] (setting [7]) stood at 19 mm. Moreover, the “inhibition zone, Staphylococcus aureus, B” value in experiment [4] (setting [8]) came to 26 mm. Besides, the “inhibition zone, Staphylococcus aureus, C” value in experiment [4] (setting [9]) is 33 mm. In addition, the “inhibition zone, Aspergillus flavus, A” value in experiment [5] (setting [7]) is 21 mm. Moreover, the “inhibition zone, Aspergillus flavus, B” value in experiment [5] (setting [8]) came to 25 mm. The “inhibition zone, Aspergillus flavus, C” value in experiment [5] (setting [9]) came to 36 mm. The “inhibition zone, Chrysosporium keratinophilum, A” value in experiment [6] (setting [7]) came to 24 mm. Besides, the “inhibition zone, Chrysosporium keratinophilum, B” value in experiment [6] (setting [8]) worked out at 26 mm. Further, the “inhibition zone, Chrysosporium keratinophilum, C” value in experiment [6] (setting [9]) was found to be 47 mm.
